Laboratory results: BindingDB's records for doi:10.3109/14756366.2010.504674 (University of Bonn, 2011)

Experiments:
Experiment in all cases: Cholinesterase Inhibition Assay
Settings in all cases: pH 7.3; 25 °C
Cholinesterase = Cholinesterase (Homo sapiens, UniProt P06276)
Method: (§1) Cholinesterase inhibition was assayed spectrophotometrically at 412 nm at 25°C [Pietsch et al., J. Med. Chem., 48:8270-8288; Ellman et al., Biochem. Pharmacol., 7:88-95]. Product formation was monitored over 5 min. Assay buffer was 100 mM sodium phosphate, 100 mM NaCl, pH 7.3. Enzyme stock solutions were prepared with assay buffer in the following concentrations ∼ 100 U/mL (EeAChE),∼ 3 U/mL (hAChE), ∼ 10 U/mL (hBChE), and were kept at 0°C. Appropriate dilutions of the EeAChE (1:30) and hBChE (1:10) solutions were done immediatelybefore starting the measurements. Solutions of ATCh (5, 10, 15, or 20 mM), BTCh (10 mM), and DTNB (7 mM) were prepared in assay buffer and kept at 0°C. Stock solutions of the inhibitors were prepared in acetonitrile. EeAChE was assayed as follows. Into a cuvette containing 830 μL assay buffer, 50 μL of the DTNB solution, 50 μL acetonitrile, 10 μL of an inhibitor solution, and 10 μL of an enzyme solution were added and thoroughly mixed. After incubation for 15 minat 25°C, the reaction was initiated by adding 50 μL of the ATCh solution. The following final concentration were used, ∼ 0.033 U/mL of EeAChE, 250, 500, 750, or 1000 μM of ATCh, 350 μM of DTNB, 6% acetonitrile. Similarly, hAChE (final concentration ∼ 0.03 U/mL) was assayed with 500 μM ATCh, and hBChE (finalconcentration ∼ 0.01 U/mL) with 500 μM BTCh. The rates of enzyme-catalyzed substrate hydrolysis were corrected by those of the non-enzymatic hydrolysis ofATCh or BTCh, respectively, as determined by using 10 μL of assay buffer, instead of the enzyme solution. A Km value of 550 μM19 for the substrate ATCh used in the EeAChE assay was taken for kinetic analyses.

Acetylcholinesterase [1] = biological target: Acetylcholinesterase (Electrophorus electricus, UniProt O42275)
Method: as §1

Acetylcholinesterase [2] = biological target: Acetylcholinesterase (Homo sapiens, UniProt P22303)
Method: as §1

Chain of Acetylcholinesterase (Electrophorus electricus, UniProt O42275) (O42275 whole entry): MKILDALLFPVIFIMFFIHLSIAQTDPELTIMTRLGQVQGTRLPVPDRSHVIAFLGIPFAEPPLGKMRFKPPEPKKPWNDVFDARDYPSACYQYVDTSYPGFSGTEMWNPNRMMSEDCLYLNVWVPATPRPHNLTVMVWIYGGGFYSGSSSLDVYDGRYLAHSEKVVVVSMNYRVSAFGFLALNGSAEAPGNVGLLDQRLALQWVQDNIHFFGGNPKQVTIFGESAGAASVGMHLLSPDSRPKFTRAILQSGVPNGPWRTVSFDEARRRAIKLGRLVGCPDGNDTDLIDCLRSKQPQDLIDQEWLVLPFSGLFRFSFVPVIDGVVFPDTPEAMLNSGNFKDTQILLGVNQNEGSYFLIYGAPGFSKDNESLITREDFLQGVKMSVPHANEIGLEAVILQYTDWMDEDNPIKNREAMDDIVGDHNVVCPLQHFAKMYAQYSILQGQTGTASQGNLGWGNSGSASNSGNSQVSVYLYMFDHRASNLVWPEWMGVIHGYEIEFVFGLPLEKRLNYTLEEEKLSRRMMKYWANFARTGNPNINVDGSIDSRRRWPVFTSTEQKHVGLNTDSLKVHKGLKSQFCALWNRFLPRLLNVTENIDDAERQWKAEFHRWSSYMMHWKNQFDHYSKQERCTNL
Chain of Acetylcholinesterase (Homo sapiens, UniProt P22303) (P22303 whole entry): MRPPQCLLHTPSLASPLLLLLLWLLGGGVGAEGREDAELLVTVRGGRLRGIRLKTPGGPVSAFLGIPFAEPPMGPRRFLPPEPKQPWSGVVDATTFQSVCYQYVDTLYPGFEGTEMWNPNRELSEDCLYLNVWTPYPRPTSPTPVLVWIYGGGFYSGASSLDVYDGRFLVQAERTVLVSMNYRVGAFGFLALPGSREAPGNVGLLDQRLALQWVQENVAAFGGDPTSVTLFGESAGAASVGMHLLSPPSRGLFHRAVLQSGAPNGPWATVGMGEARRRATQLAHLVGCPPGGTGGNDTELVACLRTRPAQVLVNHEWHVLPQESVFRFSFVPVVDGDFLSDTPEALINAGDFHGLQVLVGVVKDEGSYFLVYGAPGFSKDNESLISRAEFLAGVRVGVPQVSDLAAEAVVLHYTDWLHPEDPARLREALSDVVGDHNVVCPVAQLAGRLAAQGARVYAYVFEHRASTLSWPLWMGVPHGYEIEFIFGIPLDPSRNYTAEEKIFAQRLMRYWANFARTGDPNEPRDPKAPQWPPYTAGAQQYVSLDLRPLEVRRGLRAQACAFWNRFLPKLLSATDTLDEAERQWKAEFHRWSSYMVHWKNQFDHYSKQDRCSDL
Chain of Cholinesterase (P06276 whole entry): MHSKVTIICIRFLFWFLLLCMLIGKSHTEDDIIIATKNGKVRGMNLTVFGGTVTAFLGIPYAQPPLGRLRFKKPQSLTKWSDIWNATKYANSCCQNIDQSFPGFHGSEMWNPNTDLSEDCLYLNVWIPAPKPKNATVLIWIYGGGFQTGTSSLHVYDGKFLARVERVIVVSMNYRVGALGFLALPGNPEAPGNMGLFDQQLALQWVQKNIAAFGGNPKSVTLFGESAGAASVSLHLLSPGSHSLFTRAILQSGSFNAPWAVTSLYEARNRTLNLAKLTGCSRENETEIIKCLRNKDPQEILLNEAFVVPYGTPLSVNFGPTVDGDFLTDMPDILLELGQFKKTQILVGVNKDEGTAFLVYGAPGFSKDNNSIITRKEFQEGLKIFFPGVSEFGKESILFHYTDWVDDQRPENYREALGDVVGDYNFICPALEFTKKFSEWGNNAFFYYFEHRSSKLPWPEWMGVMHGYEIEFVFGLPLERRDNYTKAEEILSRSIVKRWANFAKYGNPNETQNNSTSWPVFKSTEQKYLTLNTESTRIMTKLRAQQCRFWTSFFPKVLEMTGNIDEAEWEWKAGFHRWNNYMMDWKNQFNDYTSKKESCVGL

SMILES	IC50 (Cholinesterase) [µM]	IC50 (Acetylcholinesterase [1]) [µM]	IC50 (Acetylcholinesterase [2]) [µM]	Ki (Acetylcholinesterase [1]) [µM]
O=C1c2c(sc3c2CCCC3)NC2=NCCCN12 [2,3,4,7,8,9,10,12-Octahydro-6H-benzothieno[2,3-d]pyrimido[1,2-a]pyrimidin-6-one (8)]	> 200	> 75	> 200	
O=C1c2c(sc3c2CCCC3)NC2=NCCN12 [2,3,6,7,8,9-Hexahydro-benzothieno[2,3-d]-imidazo[1,2-a]pyrimidin-5(11H)-one (7)]	> 200	> 75	> 200	
C1=Nc2sc3c(c2C2=NCCN12)CCCC3 [2,3,8,9,10,11-Hexahydro-benzothieno[3,2-e]imidazo[1,2-c]pyrimidine (11)]	88	1.75	56	1.32
C1=Nc2sc3c(c2C2=NCCCN12)CCCC3 [3,4,9,10,11,12-Hexahydro-2H-benzothieno[3,2-e]pyrimido[1,2-c]pyrimidine (12)]	131	2.26	20.5	1.92
O=C1c2c(sc3c2CCN(Cc2ccccc2)C3)NC2=NCCN12 [8-Benzyl-2,3,6,7,8,9-hexahydro-imidazo[1,2-a]pyrido[4′,3′:4,5]thieno[2,3-d]pyrimidin-5(11H)-one (9)]	> 200	1.35	14.2	1.55
O=C1c2c(sc3c2CCN(Cc2ccccc2)C3)NC2=NCCCN12 [9-Benzyl-2,3,4,7,8,9,10,12-octahydro-6H-pyrido[4′,3′:4,5]thieno[2,3-d]pyrimido[1,2-a]pyrimidin-6-one (10)]	51.5	1.51	5.69	2.07
C1=Nc2sc3c(c2C2=NCCN12)CCN(Cc1ccccc1)C3 [9-Benzyl-2,3,8,9,10,11-hexahydro-imidazo[1,2-c]pyrido[4′,3′:4,5]thieno[3,2-e]pyrimidine (13)]	89.9	3.09	21.8	2.36
C1=Nc2sc3c(c2C2=NCCCN12)CCN(Cc1ccccc1)C3 [10-Benzyl-3,4,9,10,11,12-hexahydro-2H-pyrido[4′,3′:4,5]thieno[3,2-e]pyrimido[1,2-c]pyrimidin (14)]	119	1.73	62.5	1.5
